Data published in patent publication US20250250227A1, “AMINO LIPID COMPOUND, PREPARATION METHOD THEREFOR, COMPOSITION THEREOF AND USE THEREOF” (SHENZHEN SHENXIN BIOTECHNOLOGY CO., LTD., priority 2022, published 2025).

Experiments:
[1] = Preparation and characterisation of mRNA-encapsulating lipid nanoparticle (encapsulation efficiency, particle size); assay type: physicochemical; details: LNP encapsulating Fluc mRNA; Lipid:DSPC:CHO-HP:M-DMG-2000 48:10:40.5:1.5
Procedure: A specified amount of Fluc mRNA stock solution, 0.2 M sodium acetate buffer, and DEPC water were added to a container, and mixed well to obtain a water phase;
The amino lipid compound of the present disclosure, a helper lipid, a structural lipid, and a PEG-lipid were separately dissolved in absolute ethanol to prepare respective solutions at concentrations of 20 mg/mL, 10 mg/mL, 20 mg/mL, and 25 mg/mL, respectively. The above four solutions were pipetted at a molar ratio of Lipid:DSPC:CHO—HP:M-DMG-2000 of 48:10:40.5:1.5, and mixed well to prepare an alcohol phase. • (2) Encapsulation: The water phase and the alcohol phase were injected into a microfluidic chip at a flow rate of water phase: alcohol phase=12 mL/min: 4 mL/min by using a microfluidic preparation instrument (MPE-L2), and encapsulation was carried out at a flow rate of water phase: alcohol phase=9 mL/min: 3 mL/min to obtain mRNA-encapsulating lipid nanoparticle (mRNA-LNP). • (3) Dialysis: The product of step (2) was loaded in a dialysis bag and placed in a Tris Buffer-8% sucrose solution for replacement to remove ingredients such as residual ethanol, unassembled lipids. Dialysis was conducted for 2 h with magnetic stirring at room temperature and under protection from light (dialysate was replaced every 1 hour). • (4) The product of step (3) was sterilized by passing through a […] microporous membrane, and then packaged.
Lipid nanoparticle formulations encapsulating Fluc mRNA were prepared, with a concentration of Fluc mRNA of 0.2 g/L, a mass ratio of Fluc mRNA to Lipid of 1:10, a particle size of 80-130 nm, and a encapsulation efficiency of 85% or higher.
The encapsulation efficiency of the lipid nanoparticle encapsulating luciferase mRNA (Fluc mRNA) with a representative amino lipid compound and the fluorescence expression intensity induced by the same are shown in Table 4, with the amino lipid compound 118 as a control. […]

Female BALB/c mice = assay: Performance evaluation of in vivo delivery of Fluc mRNA lipid nanoparticle (IVIS, body and organs); details: Fluc mRNA LNP; for Liver (fluorescence expression intensity) / Spleen (fluorescence expression intensity): 75 μL IV; for Liver (fluorescence expression intensity) / Spleen (fluorescence expression intensity) / Total flux (fluorescence expression intensity) / (Spleen/Total Flux) * 100%: 6 hours after injection; for Liver (fluorescence expression intensity) / Spleen (fluorescence expression intensity) / Total flux (fluorescence expression intensity): IVIS; for Total flux (fluorescence expression intensity): 75 μL tail vein injection (IV); for (Spleen/Total Flux) * 100% / Multiple of spleen delivery/total delivery to amino lipid compound 118: IV; for Multiple of spleen delivery/total delivery to amino lipid compound 118: relative to amino lipid compound 118
Procedure: Animal preparation: Female BALB/c mice of 6-8 weeks old were selected and raised in an SPF grade breeding room. Animal testing was conducted in strict accordance with the guidelines of national health institutions and animal ethics requirements.
In vivo Delivery: prior to injection of the test LNP formulations, the LNP formulations were gently and repeatedly inverted to thoroughly mix the formulation samples. A corresponding amount of the formulation samples were aspirated with a 1 ml insulin syringe, and the LNP formulations were injected by tail vein injection (IV), with 3 mice in duplicate per formulation. Each mouse was injected with 75 μL of the luciferase mRNA (Fluc mRNA)-encapsulating lipid nanoparticle formulation prepared in Experimental Example 1.
6 hours after injection of LNP formulations, mice were injected with 200 μL D-Luciferin luciferase developing substrate (Catalog No. 122799; Manufacturer: Perkin Elmer). After the substrate was injected, the mice were anesthetized with isoflurane inhalation, and the injection time of luciferase developing substrate was recorded.
The encapsulation efficiency of the lipid nanoparticle encapsulating luciferase mRNA (Fluc mRNA) with a representative amino lipid compound and the fluorescence expression intensity induced by the same are shown in Table 4, with the amino lipid compound 118 as a control.
The multiple of spleen delivery/total delivery of fluorescence expression intensity induced by lipid nanoparticle encapsulating luciferase mRNA (Fluc mRNA) with a representative amino lipid compound to amino lipid compound 118 is shown in Table 5.

Row | SMILES | Encapsulation efficiency [1] [%] | Liver (fluorescence expression intensity) (Female BALB/c mice) | Spleen (fluorescence expression intensity) (Female BALB/c mice) | Total flux (fluorescence expression intensity) (Female BALB/c mice) | (Spleen/Total Flux) * 100% (Female BALB/c mice) [%] | Multiple of spleen delivery/total delivery to amino lipid compound 118 (Female BALB/c mice)
1 | CCC/C=C\COC(=O)CCCN(CCCN(C)C)C(=O)OC(CCCCCCCCC(=O)OC(CCCCCC)CCCCCC)CCCCCCCCC(=O)OC(CCCCCC)CCCCCC [Compound 276] | 88.92 | 1.43E+08 | 4.67E+06 | 7.70E+08 | 0.61 | 1.78
2 | CCCCCCC(CCCCCC)OC(=O)CCCCCCCCC(CCCCCCCCC(=O)OC(CCCCCC)CCCCCC)OC(=O)N(CCCN(C)C)CCC(=O)OC(C)CCCC (stereo not drawn) [Compound 320] | 92.13 | 1.13E+08 | 4.97E+06 | 7.04E+08 | 0.71 | 2.08
3 | CC/C=C\COC(=O)CCCN(CCCN(C)C)C(=O)OC(CCCCCCCCC(=O)OC(CCCCCC)CCCCCC)CCCCCCCCC(=O)OC(CCCCCC)CCCCCC [Compound 275] | 90.61 | 1.23E+08 | 8.84E+06 | 8.16E+08 | 1.08 | 3.19
4 | CCCCCCC(CCCCCC)OC(=O)CCCCCCCCC(CCCCCCCCC(=O)OC(CCCCCC)CCCCCC)OC(=O)N(CCCN(C)C)CCC(=O)OC(CC)CCC (stereo not drawn) [Compound 321] | 93.85 | 1.27E+08 | 1.47E+07 | 7.21E+08 | 2.04 | 6.00
5 | CCCCCCCOC(=O)CN(CCCN(C)C)C(=O)OC(CCCCCCCCC(=O)OCC(CCCC)CCCCCC)CCCCCCCCC(=O)OCC(CCCC)CCCCCC (stereo not drawn) [Compound 375] | 94.18 | 1.55E+08 | 7.63E+06 | 4.06E+08 | 1.88 | 5.53
6 | CCCCCCOC(=O)CCN(CCCN(C)C)C(=O)OC(CCCCCCCCC(=O)OCC(CCCC)CCCCCC)CCCCCCCCC(=O)OCC(CCCC)CCCCCC (stereo not drawn) [Compound 372] | 92.17 | 1.67E+08 | 8.59E+06 | 5.43E+08 | 1.58 | 4.65
7 | CCCCCCC(C)OC(=O)CN(CCCN(C)C)C(=O)OC(CCCCCCCCC(=O)OC(CCCCCC)CCCCCC)CCCCCCCCC(=O)OC(CCCCCC)CCCCCC (stereo not drawn) [Compound 337] | 92.38 | 6.49E+07 | 3.30E+06 | 3.58E+08 | 0.92 | 2.71
8 | CCCC/C=C\CCOC(=O)CCCN(CCCN(C)C)C(=O)OC(CCCCCCCCC(=O)OC(CCCCCC)CCCCCC)CCCCCCCCC(=O)OC(CCCCCC)CCCCCC [Compound 279] | 92.43 | 9.55E+07 | 4.57E+06 | 6.29E+08 | 0.73 | 2.14
9 | CCCCCCC(CCCCCC)OC(=O)CCCCCCCCC(CCCCCCCCC(=O)OC(CCCCCC)CCCCCC)OC(=O)N(CCCCCC(=O)OC(C)CC)CCCN(C)C (stereo not drawn) [Compound 298] | 92.85 | 3.32E+07 | 2.13E+06 | 2.61E+08 | 0.82 | 2.40
10 | CCCCCCC(CCCCCC)OC(=O)CCCCCCCCC(CCCCCCCCC(=O)OC(CCCCCC)CCCCCC)OC(=O)N(CCCCC(=O)OC(C)CCC)CCCN(C)C (stereo not drawn) [Compound 303] | 93.23 | 8.58E+07 | 5.56E+06 | 6.41E+08 | 0.87 | 2.55
11 | CCCCCCC(CCCCCC)OC(=O)CCCCCCCCC(CCCCCCCCC(=O)OC(CCCCCC)CCCCCC)OC(=O)N(CCCN(C)C)CCC(=O)OC(C)C [Compound 316] | 90.67 | 1.26E+08 | 2.03E+07 | 8.16E+08 | 2.49 | 7.32
12 | CC/C=C\COC(=O)CCCCCN(CCCN(C)C)C(=O)OC(CCCCCCCCC(=O)OC(CCCCCC)CCCCCC)CCCCCCCCC(=O)OC(CCCCCC)CCCCCC [Compound 284] | 91.63 | 3.29E+07 | 5.20E+06 | 3.42E+08 | 1.52 | 4.47
13 | CCCCCCC(CCCCCC)OC(=O)CCCCCCCCC(CCCCCCCCC(=O)OC(CCCCCC)CCCCCC)OC(=O)N(CCCN1CCCC1)CC(=O)OCC [Compound 367] | 91.21 | 1.06E+07 | 4.33E+05 | 9.45E+07 | 0.46 | 1.35
14 | CCCCCCCOC(=O)CCN(CCCN(C)C)C(=O)OC(CCCCCCCCC(=O)OCC(CCCC)CCCCCC)CCCCCCCCC(=O)OCC(CCCC)CCCCCC (stereo not drawn) [Compound 373] | 92.01 | 9.15E+07 | 6.93E+06 | 4.77E+08 | 1.45 | 4.27
15 | CCCCCCC(CCCCCC)OC(=O)CCCCCCCCC(CCCCCCCCC(=O)OC(CCCCCC)CCCCCC)OC(=O)N(CCCCCC(=O)OCC)CCCCN1CCCC1 [Compound 366] | 93.63 | 8.92E+07 | 4.11E+06 | 5.82E+08 | 0.71 | 2.08
16 | CCCCCCCC(=O)N(CCCN(C)C)C(CCCCCCCCC(=O)OC(CCCCCC)CCCCCC)CCCCCCCCC(=O)OC(CCCCCC)CCCCCC [Compound 118, reference compound] | 90.53 | 1.88E+08 | 2.19E+06 | 6.46E+08 | 0.34 | 1.00
